Assay results as given in ChEMBL document CHEMBL4052685, “Design, synthesis and tumor cell growth inhibitory activity of 3-nitro-2H-cheromene derivatives as histone deacetylaes inhibitors” (Bioorg Med Chem, 2017).

Key:
HeLa = assay: Antiproliferative activity against human HeLa cells after 48 hrs by MTT assay; assay type: functional
MCF7 = assay: Antiproliferative activity against human MCF7 cells after 48 hrs by MTT assay; assay type: functional
K562 = assay: Antiproliferative activity against human K562 cells after 48 hrs by MTT assay; assay type: functional
Histone deacetylase 2 [1] = biological target: T1, Histone deacetylase 2 (Homo sapiens, UniProt Q92769); conditions: at 10 µM
T1 sequence (Q92769 whole entry): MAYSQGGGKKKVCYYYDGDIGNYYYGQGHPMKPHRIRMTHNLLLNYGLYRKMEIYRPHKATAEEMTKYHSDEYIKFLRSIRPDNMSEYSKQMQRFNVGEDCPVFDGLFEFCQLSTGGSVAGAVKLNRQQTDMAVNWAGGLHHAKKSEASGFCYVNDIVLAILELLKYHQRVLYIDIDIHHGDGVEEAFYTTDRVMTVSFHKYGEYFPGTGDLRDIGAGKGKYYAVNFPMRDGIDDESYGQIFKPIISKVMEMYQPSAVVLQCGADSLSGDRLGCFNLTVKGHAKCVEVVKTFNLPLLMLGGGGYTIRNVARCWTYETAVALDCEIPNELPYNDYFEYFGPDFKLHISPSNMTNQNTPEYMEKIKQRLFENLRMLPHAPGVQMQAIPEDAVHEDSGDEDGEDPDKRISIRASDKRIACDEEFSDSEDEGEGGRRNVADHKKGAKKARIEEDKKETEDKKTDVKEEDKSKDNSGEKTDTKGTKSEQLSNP
Description: Inhibition of HDAC2 (unknown origin) at 10 uM using Ac-Leu-GlyLys(Ac)-AMC as substrate preincubated for 10 mins followed by substrate addition measured after 30 mins by fluorescence analysis

PC-3 = assay: Antiproliferative activity against human PC3 cells after 48 hrs by MTT assay; assay type: functional
A549 = assay: Antiproliferative activity against human A549 cells after 48 hrs by MTT assay; assay type: functional
Histone deacetylase 2 [2] = biological target: T1, Histone deacetylase 2; assay: Inhibition of HDAC2 (unknown origin) using Ac-Leu-GlyLys(Ac)-AMC as substrate preincubated for 10 mins followed by substrate addition measured after 30 mins by fluorescence analysis
Histone deacetylase 1 = Histone deacetylase 1 (Homo sapiens, UniProt Q13547); assay: Inhibition of HDAC1 (unknown origin) using Ac-Leu-GlyLys(Ac)-AMC as substrate preincubated for 10 mins followed by substrate addition measured after 30 mins by fluorescence analysis
Chain of Histone deacetylase 1 (Q13547 whole entry): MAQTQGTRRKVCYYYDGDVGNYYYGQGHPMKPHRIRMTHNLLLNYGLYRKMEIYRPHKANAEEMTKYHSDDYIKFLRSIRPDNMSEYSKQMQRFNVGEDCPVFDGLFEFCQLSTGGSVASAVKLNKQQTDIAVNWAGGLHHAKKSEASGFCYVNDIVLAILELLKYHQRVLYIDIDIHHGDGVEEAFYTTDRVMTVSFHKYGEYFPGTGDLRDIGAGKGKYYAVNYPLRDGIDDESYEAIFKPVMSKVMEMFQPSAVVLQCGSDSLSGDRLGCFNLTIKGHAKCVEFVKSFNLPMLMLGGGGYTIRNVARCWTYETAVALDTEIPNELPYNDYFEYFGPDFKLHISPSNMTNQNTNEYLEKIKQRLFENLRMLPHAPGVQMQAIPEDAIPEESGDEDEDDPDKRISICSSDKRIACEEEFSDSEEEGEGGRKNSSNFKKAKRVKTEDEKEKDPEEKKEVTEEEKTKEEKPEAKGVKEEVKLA

Row | GI50 (HeLa; Homo sapiens, HeLa, 48 h) [µM] | GI50 (MCF7; Homo sapiens, MCF7, 48 h) [µM] | GI50 (K562; Homo sapiens, K562, 48 h) [µM] | inhibition (Histone deacetylase 2 [1]) [%] | GI50 (PC-3; Homo sapiens, PC-3, 48 h) [µM] | GI50 (A549; Homo sapiens, A549, 48 h) [µM] | IC50 (Histone deacetylase 2 [2]) [µM] | IC50 (Histone deacetylase 1) [µM] | GI50 (HeLa) [µM] | GI50 (MCF7) [µM] | GI50 (K562) [µM] | GI50 (PC-3) [µM] | GI50 (A549) [µM] | Structure (SMILES)
1 | > 20 | 5.33 | 3.11 | 55 | 6.36 | 5.83 |  |  |  |  |  |  |  | CCOc1cc(NC(=O)CCCCCCC(=O)Nc2cc(-c3ccc(C)s3)ccc2N)cc2c1OCC([N+](=O)[O-])=C2
2 | 6.08 | 6.12 | 3.47 | 0 | 7.09 | 5.32 |  |  |  |  |  |  |  | CCOc1cc(NC(=O)CCCCCC(=O)NCCc2ccccc2)cc2c1OCC([N+](=O)[O-])=C2
3 | 18.4 | 7.91 | 2.94 | 32 | 13.5 | 13.8 |  |  |  |  |  |  |  | CCOc1cc(NC(=O)CCCCC(=O)Nc2cc(-c3ccc(C)s3)ccc2N)cc2c1OCC([N+](=O)[O-])=C2
4 | 9.33 | 2.82 | 2.9 | 3 | 6.46 | 6.42 |  |  |  |  |  |  |  | CCOc1cc(NC(=O)CCCCC(=O)NCCc2ccccc2)cc2c1OCC([N+](=O)[O-])=C2
5 | 13.1 | 17.3 | 3.68 | 91 | 18.9 | 9.63 |  |  |  |  |  |  |  | CCOc1cc(NC(=O)CCCCC(=O)Nc2ccccc2N)cc2c1OCC([N+](=O)[O-])=C2
6 |  |  |  |  |  |  |  |  | 19.2 | 17.9 | 3.66 | 18.8 | 19.4 | O=C(CCCCCCC(=O)Nc1ccccc1)NO [VORINOSTAT]
7 | > 20 | 8.72 | 3.56 | 90 | 11.2 | 5.95 | 2.91 | 0.742 |  |  |  |  |  | CCOc1cc(NC(=O)CCCCNC(=O)[C@H](N)Cc2ccccc2)cc2c1OCC([N+](=O)[O-])=C2
8 | 19.2 | 19.3 | 9.32 | 98 | 19.1 | 18.4 |  |  |  |  |  |  |  | Nc1ccccc1NC(=O)c1ccc(CNC(=O)OCc2cccnc2)cc1 [ENTINOSTAT]
9 | > 20 | 13.5 | 3.36 | 93 | 8.63 | 11.7 | 0.439 | 0.232 |  |  |  |  |  | CCOc1cc(NC(=O)CCCCCCC(=O)Nc2ccccc2N)cc2c1OCC([N+](=O)[O-])=C2
10 | 14.9 | 19.4 | 3.96 | 96 | > 20 | 12.2 | 0.759 | 0.288 |  |  |  |  |  | CCOc1cc(NC(=O)CCCCCC(=O)Nc2ccccc2N)cc2c1OCC([N+](=O)[O-])=C2

Further lines, the molecule ahead of its results:

Row | Structure (SMILES) | GI50 (HeLa; Homo sapiens, HeLa, 48 h) [µM] | GI50 (MCF7; Homo sapiens, MCF7, 48 h) [µM] | GI50 (K562; Homo sapiens, K562, 48 h) [µM] | inhibition (Histone deacetylase 2 [1]) [%] | GI50 (PC-3; Homo sapiens, PC-3, 48 h) [µM] | GI50 (A549; Homo sapiens, A549, 48 h) [µM] | IC50 (Histone deacetylase 2 [2]) [µM] | IC50 (Histone deacetylase 1) [µM] | GI50 (HeLa) [µM] | GI50 (MCF7) [µM] | GI50 (K562) [µM] | GI50 (PC-3) [µM] | GI50 (A549) [µM]
11 | CCOc1cc(NC(=O)CCCCCNC(=O)CCCc2ccccc2)cc2c1OCC([N+](=O)[O-])=C2 | 6.74 | 5.96 | 3.32 | 8 | 7.17 | 5.23 |  |  |  |  |  |  | 
12 | CCOc1cc(NC(=O)CCCCCC(=O)Nc2cc(-c3ccccc3)ccc2N)cc2c1OCC([N+](=O)[O-])=C2 | 19.8 | 7.03 | 3.21 | 81 | 7.08 | 4.86 | 0.659 | 0.128 |  |  |  |  | 
13 | CCOc1cc(NC(=O)CCCCC(=O)Nc2cc(-c3ccccc3)ccc2N)cc2c1OCC([N+](=O)[O-])=C2 | > 20 | 19.9 | 5.27 | 59 | 14.6 | 7.46 |  |  |  |  |  |  | 
14 | CCOc1cc(NC(=O)CCCCCCC(=O)Nc2cc(-c3ccccc3)ccc2N)cc2c1OCC([N+](=O)[O-])=C2 | 16.2 | 9.37 | 2 | 72 | 10.7 | 5.4 | 0.827 | 0.179 |  |  |  |  | 
15 | CCOc1cc(NC(=O)CCCCCC(=O)Nc2cc(-c3ccc(C)s3)ccc2N)cc2c1OCC([N+](=O)[O-])=C2 | > 20 | > 20 | 2.92 | 62 | 11.4 | 5.07 | 1.79 | 0.366 |  |  |  |  | 
16 | CCOc1cc(NC(=O)CCCCCNC(=O)Cc2ccccc2)cc2c1OCC([N+](=O)[O-])=C2 | 5.8 | 4.17 | 1.53 | 0 | 13.2 | 4.8 |  |  |  |  |  |  | 
17 | CCOc1cc(NC(=O)CCCCCNC(=O)[C@H](N)Cc2ccccc2)cc2c1OCC([N+](=O)[O-])=C2 |  |  |  |  |  |  | 1.29 | 0.448 |  |  |  |  | 
18 | CCOc1cc(NC(=O)CCCCCCC(=O)NCCc2ccccc2)cc2c1OCC([N+](=O)[O-])=C2 | > 20 | 19.1 | 4.12 | 8 | 10.9 | 18.2 |  |  |  |  |  |  | 
